Assay results taken from patent US20100056519A1, “COMPOSITION AND METHOD FOR REDUCING PLATELET ACTIVATION AND FOR THE TREATMENT OF THROMBOTIC EVENTS” (priority 2008, published 2010).
Marks after values point to notes of the source that are not given here.

What was measured:
Format in all cases: cell-based, human
LAMP-3 (CD63) = experiment: TRAP-stimulated whole blood flow cytometry, LAMP-3; details: Mean ± SD
Experimental: (§1) The methodology employed was conventional aggregation induced by 5 μM ADP, 1 μg/ml collagen, 10 μM TRAP, whole blood aggregation with 1 μg/ml collagen, Ultegra, and PFA-100 Analyzers, expression of 14 intact, and TRAP-stimulated major receptors by whole blood flow cytometry were utilized to assess platelet activity after preincubation with escalating concentrations of E5555 (20 ng/ml, 50 ng/ml, and 100 ng/ml). The experiments were performed in healthy volunteers, CAD patients treated with ASA, and CAD patients treated with ASA and clopidogrel combination (n=10, for each group).
(§2) An Informed Consent was obtained from all volunteers. Drug users were excluded from data analysis. The study was approved by Quorum Institutional Review Board. All subjects underwent blood sampling after at least 30 minutes of rest and two or more hours of fasting. Blood (28 ml) was drawn between 8 and 10 a.m. in order to avoid any diurnal influence and sampled from an antecubital vein using a 21-gauge butterfly needle containing 3.2% sodium citrate (1:9 volume) after having discarded the first 1.5 ml of free running blood. Four Vacutainer tubes (7.0 ml) were collected for a total of 28 ml of whole blood-citrate mixture from each study participant. Chronologically, blood samples were delivered to the core laboratory facility within 45 minutes after drawing. Then all tubes of blood-citrate mixture were pooled. One portion of pooled blood (5 ml) was kept as an internal control and pretreated with the vehicle. The remaining blood (23 ml) was used for the in vitro exposure to E5555 at concentrations of 20 ng/ml, 50 ng/ml, and 100 ng/ml. […] The platelet aggregation studies, Rapid Analyzers measures, and flow cytometry preparations were initiated within no more than 110 minutes following the blood draw, incubation with the drug, and preparation of the samples.
(§3) Formation of platelet-leukocyte aggregates was assessed by dual labeling with pan-platelet marker (CD151), and then with CD14, the macrophage receptor for endotoxin lipopolysaccharides (PharMingen, and Coulter, San Diego, Calif., USA). The tubes were then covered with aluminum foil and incubated at 37° C. for 40 minutes with gentle rotation. After incubation, samples were immediately analyzed on a Becton Dickinson FACScan flow cytometer. The instrument was set up to measure forward light scatter, and FITC fluorescence. All parameters were collected using four-decade logarithmic amplification. The data was retrieved in list mode files and then analyzed. P selectin was expressed as percent positive cells. Other antigens were expressed as log mean fluorescence intensity.
(§4) For flow cytometry (TRAP-stimulated) all of the above flow cytometry experiments were identically repeated utilizing prestimulation with 10 μmol/L TRAP for 5 minutes at 37° C. To determine statistics, a Paired Sign Test was used to define significance of differences between vehicle and E5555-treated groups. The Mann-Whitney U test was used to analyze nonparametric data. Normally distributed data were expressed as mean±standard error (m±SE), and skewed data as median (range). All P-values were two sided. All analysis was performed using the SPSS v9.0 program (SPSS Inc., Chicago, Ill.).

[1] = test system: Thrombospondin-Receptor (CD36); experiment: Unstimulated whole blood flow cytometry, thrombospondin receptor; details: for Thrombospondin-Receptor (CD36), Mean Fluorescence Intensity: unstimulated, Mean ± SD
Experimental: as §1, §2, §3

VTNR (CD51/61) = experiment: TRAP-stimulated whole blood flow cytometry, vitronectin receptor; details: Mean ± SD
Experimental: as §1, §2, §3, §4

platelets = experiment: Platelet Function Analyzer PFA-100, ADP/Collagen cartridge; details: for Closure time (s): recording limit 300 s
Experimental: as §1, §2
Whole blood aggregation was determined using a Chronolog device 592A. The whole blood-citrate mixture was diluted 1:1 with 0.5 ml phosphate buffered saline and gently swirled. The sample then was allowed to warm to 37° C. for 5 minutes then transferred to the assay well. The electrode was then placed in the cuvette and the sample was stimulated with 1 μg/ml collagen. The change in electrical impedance was digitally recorded. Each whole blood sample was analyzed utilizing 2 different clinical devices: • (1) a Rapid Platelet-Function Assay (Ultegra®) (Accumetrics, Inc., San Diego, Calif.), which is a rapid platelet-function assay aspirin cartridge test with TRAP used as agonist. Polystyrene beads coated with fibrinogen are placed in a cartridge along with the peptide that activates thrombin receptor. Anticoagulated whole blood was added to the cartridge, and agglutination between platelets and coated beads was recorded. The data mirrors turbidimetric platelet aggregation and presumably reflects platelet glycoprotein IIb/IIIa blockade. Ultegra RPFA-TRAP Assay results were reported as Platelet Activation Units (PAU); and • (2) Platelet-Function Analyzer PFA-100 ™ (Dade Behring, Deerfield Ill.), which is a high shear-inducing analyzer that simulates primary hemostasis after injury to a small vessel under flow conditions. The device provides a constant negative pressure that aspirates whole blood, which comes into contact with the collagen, coated membrane and then passes through the aperture. The time required to obtain occlusion of the aperture is digitally recorded. The time to aperture occlusion (the closure time) is recorded in seconds and is inversely related to the degree of shear-induced platelet activation. We used ADP/Collagen cartridges in the index study. Both PFA-100 and Ultegra assays were performed in duplicate. An electronic quality control test was performed on each instrument daily prior to performing any patient samples.

[2] = E5555 20 ng/ml, Patients (ASA + C)
[3] = E5555 50 ng/ml, Patients (ASA + C)
[4] = E5555 100 ng/ml, Patients (ASA + C)
[5] = E5555 100 ng/ml, Patients (ASA)

Question: What does the source list for `Br.CCOc1cc2c(c(F)c1OCC)C(=N)N(CC(=O)c1cc(N3CCOCC3)c(OC)c(C(C)(C)C)c1)C2` [E5555, 1-(3-tert-butyl-4-methoxy-5-morpholinophenyl)-2-(5,6-diethoxy-7-fluoro-1-imino-1,3-dihydro-2H-isoindol-2-yl)ethanone hydrobromide]?
Answer: LAMP-3 (CD63), Mean Fluorescence Intensity (LAMP-3 (CD63); [2]): 20 ± 5 MFI; LAMP-3 (CD63), Mean Fluorescence Intensity (LAMP-3 (CD63); E5555 20 ng/ml, Patients (ASA)): 24 ± 8 MFI; LAMP-3 (CD63), Mean Fluorescence Intensity (LAMP-3 (CD63); E5555 20 ng/ml, Volunteers): 26 ± 7 MFI; LAMP-3 (CD63), Mean Fluorescence Intensity (LAMP-3 (CD63); [3]): 5 ± 3 MFI; LAMP-3 (CD63), Mean Fluorescence Intensity (LAMP-3 (CD63); E5555 50 ng/ml, Patients (ASA)): 9 ± 3 MFI; LAMP-3 (CD63), Mean Fluorescence Intensity (LAMP-3 (CD63); E5555 50 ng/ml, Volunteers): 8 ± 2 MFI; LAMP-3 (CD63), Mean Fluorescence Intensity (LAMP-3 (CD63); [4]): 4 ± 1 MFI; LAMP-3 (CD63), Mean Fluorescence Intensity (LAMP-3 (CD63); [5]): 5 ± 1 MFI; LAMP-3 (CD63), Mean Fluorescence Intensity (LAMP-3 (CD63); E5555 100 ng/ml, Volunteers): 7 ± 2 MFI; thrombospondin receptor expression, effect in words ([1]; overall summary, stimulation not stated): significant reduction; Thrombospondin-Receptor (CD36), Mean Fluorescence Intensity [1, 2]: 6.8 ± 1.9 MFI; Thrombospondin-Receptor (CD36), Mean Fluorescence Intensity ([1]; E5555 20 ng/ml, Patients (ASA)): 7.2 ± 0.5 MFI; Thrombospondin-Receptor (CD36), Mean Fluorescence Intensity ([1]; E5555 20 ng/ml, Volunteers): 8.4 ± 1.1 MFI; Thrombospondin-Receptor (CD36), Mean Fluorescence Intensity [1, 3]: 7.0 ± 1.0 MFI; Thrombospondin-Receptor (CD36), Mean Fluorescence Intensity ([1]; E5555 50 ng/ml, Patients (ASA)): 7.0 ± 0.7 MFI; Thrombospondin-Receptor (CD36), Mean Fluorescence Intensity ([1]; E5555 50 ng/ml, Volunteers): 8.2 ± 0.8 MFI; Thrombospondin-Receptor (CD36), Mean Fluorescence Intensity [1, 4]: 7.1 ± 1.2 MFI; Thrombospondin-Receptor (CD36), Mean Fluorescence Intensity [1, 5]: 7.4 ± 0.9 MFI; Thrombospondin-Receptor (CD36), Mean Fluorescence Intensity ([1]; E5555 100 ng/ml, Volunteers): 8.4 ± 1.0 MFI; VTNR (CD51/61), Mean Fluorescence Intensity (VTNR (CD51/61); [2]): 10.2 ± 1.5 MFI; VTNR (CD51/61), Mean Fluorescence Intensity (VTNR (CD51/61); E5555 20 ng/ml, Patients (ASA)): 10.8 ± 2.1 MFI; VTNR (CD51/61), Mean Fluorescence Intensity (VTNR (CD51/61); E5555 20 ng/ml, Volunteers): 10.4 ± 1.3 MFI; VTNR (CD51/61), Mean Fluorescence Intensity (VTNR (CD51/61); [3]): 10.9 ± 1.6 MFI; VTNR (CD51/61), Mean Fluorescence Intensity (VTNR (CD51/61); E5555 50 ng/ml, Patients (ASA)): 10.5 ± 1.3 MFI; VTNR (CD51/61), Mean Fluorescence Intensity (VTNR (CD51/61); E5555 50 ng/ml, Volunteers): 10.1 ± 1.7 MFI; VTNR (CD51/61), Mean Fluorescence Intensity (VTNR (CD51/61); [4]): 11.0 ± 2.0 MFI; VTNR (CD51/61), Mean Fluorescence Intensity (VTNR (CD51/61); [5]): 9.9 ± 1.3 MFI; VTNR (CD51/61), Mean Fluorescence Intensity (VTNR (CD51/61); E5555 100 ng/ml, Volunteers): 10.7 ± 1.5 MFI; Closure time (s) (platelets; [2]): >300*† s; Closure time (s) (platelets; E5555 20 ng/ml, Patients (ASA)): >300*† s; Closure time (s) (platelets; E5555 20 ng/ml, Volunteers): >300*† s; Closure time (s) (platelets; [3]): >300*† s; Closure time (s) (platelets; E5555 50 ng/ml, Patients (ASA)): >300*† s; Closure time (s) (platelets; E5555 50 ng/ml, Volunteers): >300*† s; Closure time (s) (platelets; [4]): >300*† s; Closure time (s) (platelets; [5]): >300*† s; Closure time (s) (platelets; E5555 100 ng/ml, Volunteers): >300*† s; Platelet Analyzer readings, shear-induced activation, effect in words (platelets; overall summary): reduced shear-induced activation
